Data set [1] has as its system Human immunodeficiency virus 1. Nature of the data set: Antiviral activity against HIV1 NL4-3 in PBMC. The data set is classed as functional, organism-based. The note with it: Human immunodeficiency virus 1, NL4-3.
Data set [2] in a line: Therapeutic index, ratio of CC50 for PBMC to IC50 for HIV1 TEK1. As to conditions: read-out: Ratio CC50/IC50.
A short description of data set [3]: Inhibition of HIV integrase strand transfer activity by magnesium chloride-based assay. Also noted: species or system Human immunodeficiency virus.
Data set [4] deals with Human immunodeficiency virus 1. Nature of the data set: Antiviral activity against HIV1 TEK1 in PBMC. The data set is classed as functional, organism-based. As to conditions: Human immunodeficiency virus 1, TEK1.
Data set [5] in a line: Cytotoxicity against PBMC cells. The data set is classed as cell-based. The note with it: human.
Data set [6] can be described thus: Therapeutic index, ratio of CC50 for PBMC to IC50 for HIV1 NL4-3. The note with it: read-out: Ratio CC50/IC50.
Data set [7] can be described thus: Inhibition of HIV integrase 3'-processing activity by magnesium chloride-based assay. Also noted: species or system Human immunodeficiency virus.

The term IC50 denotes the point on the concentration scale where inhibition reaches its midpoint. A low value points to greater potency. For orientation: CC50 means the concentration that lowers cell viability or growth by half. Low readings indicate harm at low concentration, high ones better tolerance by the cells. For the molecule `O=C(/C=C(\O)P(=O)(O)O)c1cn(Cc2ccccc2)c(=O)n(Cc2ccccc2)c1=O`, the IC50 in data set [1] is 3.2 µM; in data set [3] it was 20.2 µM; in data set [4] it was 4 µM; in data set [7], greater than 333 µM. Moreover, the selectivity ratio in data set [2] was greater than 50; in data set [6], greater than 62. In addition, in data set [5], the CC50 was greater than 200 µM.

With `O=C(/C=C(\O)P(=O)(O)O)c1cc(OCc2ccccc2)cc(OCc2ccccc2)c1`, the results for the IC50 in data set [1] and in data set [4] were 11.8 µM and 8.1 µM, respectively. Also, the selectivity ratio in data set [2] came to 5.8; in data set [6], 4. Further, the CC50 in data set [5] amounted to 46.9 µM.

Values taken from ChEMBL document CHEMBL1148834, “A novel diketo phosphonic acid that exhibits specific, strand-transfer inhibition of HIV integrase and anti-HIV activity” (Bioorg Med Chem Lett, 2007).
